Like-named read-outs stand apart in the source and are kept apart here.
How the values were obtained:
PVY CP^S125A = target: T1, PVY CP^S125A (Potato virus Y, UniProt Q02963, S2919A); experiment: MST assay for affinity with mutant PVY CP^S125A; settings: 25.0°C, read-out: Kd for binding to PVY CP^S125A
T1 construct: 6xHis (N, cleaved yes); S-tag (N, cleaved yes); thioredoxin (Trx, from pET-32a); made in house; host or cells: E. coli BL21 (DE3)
T1 sequence (Q02963 2795-3061 S2919A): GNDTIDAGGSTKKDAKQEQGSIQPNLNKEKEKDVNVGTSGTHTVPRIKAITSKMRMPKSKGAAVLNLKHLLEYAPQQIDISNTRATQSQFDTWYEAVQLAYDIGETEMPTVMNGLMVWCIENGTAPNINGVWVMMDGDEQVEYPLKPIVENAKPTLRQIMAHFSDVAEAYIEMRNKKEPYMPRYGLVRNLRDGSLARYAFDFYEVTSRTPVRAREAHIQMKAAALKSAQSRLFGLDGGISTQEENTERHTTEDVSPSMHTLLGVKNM

PVY [1] = experiment: Inactivating activity against PVY, half-leaf method on Chenopodium amaranticolor; assay type: in vivo, potato virus Y; settings: for EC50: Potato virus Y, in Chenopodium amaranticolor
Method: (§1) According to previous reports,[46] PVY was infested in Nicotiana tabacum K326, and PVY was harvested and purified after showing severe infection symptoms on the leaves. The literature-guided protocol was followed to assess the curative, prophylactic, and […] potential of the target compounds under investigation.[15]
Target compound solution (1,000 μg/mL) and 2 × virus solution were combined in equal quantities and incubated for 30 min. Evenly distribute emery onto the leaf blades, and apply the mixture of virus and compound solution onto the right side of C. amaranticolor leaf blades. Following this, an identical quantity of a 1× virus solution was applied to the untreated side of the leaf. Following a duration of 1.5 h, the emery residue present on the leaf surface was removed using a rinsing process utilizing water. The plants were incubated within a controlled greenhouse environment, maintaining a consistent temperature of 25°C. After 5−7 days, they proceeded to statistics the number of necrotic spots on the leaves. For each chemical, triplicate experiments were undertaken, and the average percentage of inhibition was subsequently determined.

PVY CP^wt = PVY CP^wt (Potato virus Y, UniProt A0A650FPI8); experiment: MST assay for affinity with PVY CP^wt; assay type: binding
Excerpt: Microscale thermophoresis (MST) serves as a potent technique for quantifying the strength of interactions occurring between small molecules and their respective ligands.[19]^,[20] The binding strength between specific target drugs and PVY CP^wt was investigated in vitro using MST, as depicted in Figures 5G and S3. This experimental approach aimed to acquire insights into how target compounds exert their influences against PVY. […] Similarly, the affinity of target compounds for interacting with PVY CP^S125A was tested.
The PVY CP^wt gene, the wild-type variant of the Potato Virus Y coat protein, was cloned into the pET-32a (+) prokaryotic expression vector. This recombinant vector was then thermally transformed into BL21 (DE3) bacterial host cells for subsequent protein expression. The strains above were cultivated on a liquid Luria-Bertani medium (180 rpm, 37°C). To initiate the expression of PVY CP, isopropyl β-D-1-thiogalactopyranoside (IPTG) was added to the culture medium at a concentration of […] when the optical density at 600 nm (OD600) reached a range between 0.6 and 0.8. This step triggered the production of the PVY CP protein. The induction process was maintained for 10 h (180 rpm, 16°C). The 6 × -His-S-tagged PVY CP^wt were purified using nickel-nitriloacetic acid by high-performance column affinity chromatography. Subsequently, enterokinase was employed to digest the proteins, and the desired target proteins were isolated using His-tag purification resin. Ultimately, the proteins were identified through the employment of a 12% sodium dodecyl sulfate-polyacrylamide gel electrophoresis method. The pET-32a (+) plasmid containing the PVY CP^wt gene was used as a template. […] The mutant protein was purified using the method for the purification of PVY CP^wt, which was PVY CP^S125A.
The proteins' binding affinity with target chemicals was evaluated using a Monolith NT.115 instrument (Nano Temper, Munich, Germany), utilizing established methods described in literature.[35]^,[48] A concentration of 2.0 mM was selected for the chemicals, and the proteins were tagged with the Monolith TM RED-NHS second-generation labeling kit. The MST assay analyzed the fluorescence intensity of the labeled proteins, focusing on a range from 400 to 1200 to investigate their interactions. The scanning method was conducted using an “LED power” setting of 40% and a temperature that was maintained at 25.0°C.

PVY [2] = experiment: Protective activity against PVY, half-leaf method on Chenopodium amaranticolor; assay type: in vivo; settings: Potato virus Y, in Chenopodium amaranticolor; 500 μg/mL; Chenopodium amaranticolor leaves; average of three replicates
Method: as §1
A 500 μg/mL solution of the targeted compound was delicately applied to one side of C. amaranticolor leaves, while the other side was treated with a 1% Tween 80 aqueous solution. The plants were positioned in a greenhouse set at 25°C. Following a 24 h period, the entire leaf surface was inoculated with PVY by uniformly distributing 200–300 mesh emery. After 1.5 h, the emery was washed off with water, and the plants were returned to the greenhouse. After 5–7 days, the number of necrotic spots was tallied, with the assessment based on the greenhouse population. Each compound was tested in triplicate, and the average inhibition rate was subsequently calculated.

PVY [3] = experiment: Curative activity against PVY, half-leaf method on Chenopodium amaranticolor; assay type: in vivo; settings: Potato virus Y, in Chenopodium amaranticolor; 500 μg/mL; Chenopodium amaranticolor leaves; average of three replicates
Excerpt: as §1
To assess the curative effectiveness against PVY, a uniform layer of 200–300 mesh emery was applied to the leaves of C. amaranticolor, followed by rubbing with a virus solution. For 1.5 h, then the emery was washed off with water. After the leaves naturally dried, a 500 μg/mL solution of the test compound was carefully applied to one side of the leaf, while the opposite side received a 1% Tween 80 solution as a control. The plants were subsequently incubated in a greenhouse maintained at 25°C. After 5−7 days, the presence of necrotic spots on the leaves was recorded, with each compound tested on three replicate plants. The average inhibition rate was determined by analyzing the data from these replications.

PVY-GFP = experiment: Systemic infection of PVY-GFP in Nicotiana benthamiana (UV fluorescence, RT-qPCR); assay type: in vivo, potato virus Y; settings: 500 μg/mL spray, 7 dpai; for Green fluorescence under UV light: N. benthamiana, versus DMSO control; for PVY RNA accumulation level (control normalized as 100%): systemic leaves of N. benthamiana, RT-qPCR
Excerpt: To evaluate the effect of C50 on PVY infection, we infiltrated the Nicotiana benthamiana plants with Agrobacterium carrying the PVY infectious clone pCamPVY-GFP. […] The RT-qPCR results for GFP were consistent with that of PVY RNA (Figure 3D).
The Nicotiana benthamiana plants were subjected to infestation by Agrobacterium tumefaciens, which carried either pCamPVY-GFP or an empty vector (mock). […] At 7 dpai, the leaves of N. benthamiana were looked at for the GFP using a LUYOR UV light (Shanghai, China), and captured in photographs. The foliage was gathered, rapidly frozen with liquid nitrogen, and subsequently preserved in a refrigerator set at a temperature of −80°C.
Leaf blades of Nicotiana benthamiana were pulverized into fine powder with the aid of liquid nitrogen, followed by the extraction of total RNA from the leaf tissue utilizing Trizol reagent (Invitrogen, California, USA). Subsequently, cDNA synthesis was conducted through reverse transcription with primers and a reverse transcription kit (Vazyme, Nanjing, China). Any potential DNA contamination was effectively removed using a gDNA wipe enzyme (Vazyme, Nanjing, China) as per the manufacturer’s guidelines. RT-qPCR analysis was carried out employing TB Green (TaKaRa, Beijing, China). Detailed information regarding the primers utilized in this investigation can be found in Table S2.

[4] = Chenopodium amaranticolor leaves, read-out: EC50 for inactivating activity
[5] = inactivating activity, Table S1, read-out: Experimental pEC50 (converted)

For CC1(C)C=Cc2c(ccc(/C=N/c3ccc(NS(=O)(=O)c4ccc(Cl)cc4)cc3)c2O)O1 [Compound C6, (E)-4-chloro-N-(4-(((5-hydroxy-2,2-dimethyl-2H-chromen-6-yl)methylene)amino)phenyl) benzenesulfonamide], the Kd (PVY CP^S125A) was 312 ± 40.3 µM, the melting point was 139 to 141 °C and the EC50 (PVY [1]; [4]) was 56.7 ± 4.2 µg/mL. The EC50 (PVY [1]; [5]) was 121 µM and the Kd (PVY CP^wt) was 4.4 µM.
Work on CC(C)=CCCC1(C)C=Cc2c(ccc(/C=N/c3ccc(NS(=O)(=O)c4ccc(C)cc4)cc3)c2O)O1 (centres unmarked) [Compound C42] yielded a melting point of 95 to 97 °C, an EC50 (PVY [1]; [4]) of 503 ± 17 µg/mL and an EC50 (PVY [1]; [5]) of 975 µM. The Kd (PVY CP^wt) was 497 µM.
Work on Cc1ccc(S(=O)(=O)Nc2ccc(/N=C/c3ccc4c(c3O)C=CC(C)(C)O4)cc2)cc1 [Compound C50] yielded a Kd (PVY CP^S125A) of 125 µM, a melting point of 127 to 129 °C and an inhibition at 500 µg/mL (PVY [2]) of 60 to 70%. It also gave an EC50 (PVY [1]; [4]) of 53.3 ± 4.3 µg/mL, an EC50 (PVY [1]; [5]) of 119 µM and an inhibition at 500 µg/mL (PVY [3]) of 60 to 70%. For the same compound, the “Green fluorescence under UV light” value (PVY-GFP) was “noteworthy decrease in green fluorescence”, the “PVY RNA accumulation level (control normalized as 100%)” value (PVY-GFP) was 18.9% and the Kd (PVY CP^wt) was 1.6 µM.
For CNCC(=O)N[C@@H](CO)C(=O)N[C@H]1[C@H](O)[C@@H](O)[C@H](n2ccc(N)nc2=O)O[C@@H]1C(N)=O [NNM, Ningnanmycin, reference compound], the “EC50 for inactivating activity” value (PVY [1]; Chenopodium amaranticolor leaves) was 75.7 ± 4.0 µg/mL, the EC50 (PVY [1]; read-out: EC50 for inactivating activity, Chenopodium amaranticolor leaves) was 73.7 µg/mL and the “Green fluorescence under UV light” value (PVY-GFP) was “noteworthy decrease in green fluorescence”. The “PVY RNA accumulation level (control normalized as 100%)” value (PVY-GFP) was 51.8% and the Kd (PVY CP^wt) was 8.6 µM.

Reference: article PMC11565046, “Rational design of 2H-chromene-based antiphytovirals that inhibit virion assembly by outcompeting virus capsid-RNA interactions” (iScience, 2024)
